{"source": "patent US20240041911A1", "about": "“USE OF CLADRIBINE FOR TREATING IMMUNE BRAIN DISEASE” (CHORD THERAPEUTICS SA, priority 2020, published 2024)", "key": {"[1]": {"experiment": "Treatment of a person suffering from autoimmune-mediated limbic encephalitis (single-patient case, anti-NMDAR encephalitis)"}, "[2]": {"conditions": "multiple sclerosis patients; cited from earlier work"}}, "data": [{"molecule": "Nc1nc(Cl)nc2c1ncn2[C@H]1C[C@H](O)[C@@H](CO)O1", "note": "[cladribine, 2-chloro-2′-deoxyadenosine]", "values": [{"measurement": "period of beneficial effects on the disease without need for frequent retreatment", "setting": "[1]; after a relatively short period of treatment", "value": "over 10 months to two years"}, {"measurement": "disability reported by patient", "setting": "[1]; after recovery following cladribine, able to perform all usual activities", "value": "no significant disability"}, {"measurement": "recurrence of disease", "setting": "[1]; follow up of 2 years, 5 more maintenance courses (20 mg over 2 consecutive days) with 2 months intervals", "value": "did not show any recurrence of disease"}, {"measurement": "neurological condition", "setting": "[1]; over subsequent 4 weeks after the first 3 weeks following cladribine", "value": "returned to normal neurological condition"}, {"measurement": "onset of effect on severe symptoms", "setting": "[1]; patient with refractory autoimmune encephalitis", "value": "rapid effect"}, {"measurement": "neurological sequel", "setting": "[1]; remaining after recovery following cladribine", "value": "parasomnia and complete loss of memory covering the entire hospitalization period"}, {"measurement": "time at which therapeutic effect on MS is evident", "setting": "[2]", "value": "three months after treatment"}]}, {"molecule": "CCCC(CCC)C(=O)[O-].[Na+]", "note": "[sodium valproate]", "values": [{"measurement": "response of generalized tonic-clonic repetitive seizures to anticonvulsants", "setting": "[1]; before cladribine", "value": "did not respond"}]}, {"molecule": "O=C1NC(=O)C(c2ccccc2)(c2ccccc2)N1", "note": "[phenytoin]", "values": [{"measurement": "response of generalized tonic-clonic repetitive seizures to anticonvulsants", "setting": "[1]; before cladribine", "value": "did not respond"}]}, {"molecule": "O=C1CN=C(c2ccccc2Cl)c2cc([N+](=O)[O-])ccc2N1", "note": "[clonazepam]", "values": [{"measurement": "response of generalized tonic-clonic repetitive seizures to anticonvulsants", "setting": "[1]; before cladribine", "value": "did not respond"}]}, {"molecule": "O=C(CCCN1CCC(O)(c2ccc(Cl)cc2)CC1)c1ccc(F)cc1", "note": "[haloperidol]", "values": [{"measurement": "psychiatric condition under standard antipsychotic treatment", "setting": "[1]; during entire stay in the psychiatric ward, before cladribine", "value": "without any improvement"}]}, {"molecule": "NC(=O)N1c2ccccc2C=Cc2ccccc21", "note": "[carbamazepine]", "values": [{"measurement": "response of generalized tonic-clonic repetitive seizures to anticonvulsants", "setting": "[1]; before cladribine", "value": "did not respond"}]}]}
